Where two headings read alike, the source gives them in different places.
How the values were obtained:
[1] = system: human induced pluripotent stem cell (hiPSC); assay: devTOX quickPredict (ornithine/cystine ratio, cell viability); type: cell-based; settings: at concentrations above the TDI
Procedure: devTOX quickPredict is a human induced pluripotent stem cell (hiPSC) -based assay that predicts the concentration at which a compound may elicit developmental toxicity. […] Assays were performed as described in [Palmer et al. (2013)] with modifications. Briefly undifferentiated hiPSCs are exposed to the compound for 48 h, with media and test article replacement every 24 h. Ornithine and […] concentrations were measured from the final 24-h treatment using Ultra-Performance Liquid Chromatography-High Resolution Mass Spectrometry (UPLC-HRMS). Cell viability was assessed after sample collection using the CellTiter-Fluor Cell Viability Assay (Promega). Dose-response analysis for the o/c ratio, cell viability, ornithine response and cystine response were performed with GraphPad Prism (version 9.1 or newer, GraphPad Software). Each data set was fit with a nonlinear model. The standard model used for analysis is a four-parameter log-logistic nonlinear model. However, the Akaike information criterion (GraphPad Prism) was used to determine if an asymmetric (five-parameter) or multiphasic nonlinear model was a better fit for the data than the four-parameter model. The developmental toxicity potential (dTP, o/c ratio) and toxicity potential (TP, cell viability) concentrations were predicted from the respective dose-response curves using the hiPSCs cell developmental toxicity threshold (dTT, 0.85).

[2] = system: developmental or reproductive toxicity in animal or human; settings: cited from earlier work
[3] = Human in vivo PK data: concentration-dose ratio (CDR) and toxicokinetic variability factor (TKVF); design: 95% percentile (Conc-dose-ratio): unit not given here;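 also: Literature-pooled human in vivo PK data, plasma, serum or cord blood concentrations per daily dose, weighted by study population size across non-pregnant, pregnant and fetal groups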
humans = settings: ref Supplementary Data Sheet 1, cited from earlier work
[4] = hepatic intrinsic clearance, CLint (PBK parameter); type: in vitro ADME
[5] = human
[6] = system: human developmental and reproductive toxicity; settings: cited from earlier work
[7] = Bioactivity exposure ratio (BER): minimum platform PoD / estimated Cmax
[8] = cited from earlier work
[9] = ref FSCJ, EFSA, SCF, JMPR as named in the cell; cited from earlier work
[10] = parental/systemic toxicity, not reproductive effects; ref Supplementary Data Sheet 1; cited from earlier work
[11] = Foetus, oral, combined (retinyl palmitate, dietary retinoids)
[12] = Non-Pregnant, oral, combined (retinyl palmitate, dietary retinoids)
[13] = Pregnant, oral, combined (retinyl palmitate, dietary retinoids)
[14] = evidence of developmental or reproductive toxicity in animal or human, irrespective of exposure/dose, ref Supplementary Data Sheet 1

SMILES: CCCCOC(=O)c1ccccc1C(=O)OCCCC [Dibutyl phthalate (DBP), Dibutyl phthalate]
- response in devTox quickPredict [1]: positive response
- DART Hazard Call [2]: Toxic

SMILES: CCOP(=S)(OCC)Oc1nc(Cl)c(Cl)cc1Cl [Chlorpyrifos]
- Mean Conc-dose -ratio ([3]; Non-Pregnant, oral): 0.002 uM/(mg/day]
- DART Hazard Call [2]: Toxic
- level of the high exposure group associated with developmental neurotoxicity (humans; prenatal exposure, cord blood biomonitoring): The high exposure CPF group (≥4.39 pg/g) was associated with developmental neurotoxicity

SMILES: CCCCOC(=O)c1ccccc1C(=O)OCCCC [Dibutyl phthalate]
- Intrinsic Liver Clearance [4]: 1887.4 L/h
- Renal Clearance [5]: 0.2 L/h

SMILES: CC1=C(/C=C/C(C)=C/C=C/C(C)=C/CO)C(C)(C)CCC1 [Retinol]
- CDR fold difference to non-pregnant ([3]; Fetus population): 0.82
- TKVF ([3]; Fetus population, TKVF95 = p95 / weighted mean concentration-dose ratio): 1.86
- 95% percentile (Conc-dose-ratio) [3, 11]: 2.85
- Fold Difference to non-pregnant [3, 11]: 0.82
- Fold Difference to pregnant [3, 11]: 0.93
- Mean Conc-dose -ratio [3, 11]: 1.54 uM/(mg/day]
- TKVF [3, 11]: 1.86
- CDR fold difference to non-pregnant ([3]; Non-Pregnant population (reference)): 1.00
- TKVF ([3]; Non-Pregnant population, TKVF95 = p95 / weighted mean concentration-dose ratio): 2.32
- 95% percentile (Conc-dose-ratio) [3, 12]: 4.34
- Fold Difference to non-pregnant [3, 12]: 1.00
- Mean Conc-dose -ratio [3, 12]: 1.87 uM/(mg/day]
- TKVF [3, 12]: 2.32
- CDR fold difference to non-pregnant ([3]; Pregnant population): 0.88
- TKVF ([3]; Pregnant population, TKVF95 = p95 / weighted mean concentration-dose ratio): 1.64
- 95% percentile (Conc-dose-ratio) [3, 13]: 2.70
- Fold Difference to non-pregnant [3, 13]: 0.88
- Fold Difference to pregnant [3, 13]: 1.00
- Mean Conc-dose -ratio [3, 13]: 1.65 uM/(mg/day]
- TKVF [3, 13]: 1.64
- Exposure risk (DART risk classification) ([6]; Cosmetic, 0.05% in body lotion, dermal, ref Supplementary Data Sheet 1): Low Risk
- Exposure risk (DART risk classification) ([6]; Dietary, <10,000 IU, oral, ref Supplementary Data Sheet 1): Low Risk
- DART Hazard Call [2, 14]: Toxic
- exposure above which DART effects are seen in vivo (humans): above 3,000 μg RE/day
- BER ([7]; low-risk scenario of normal dietary exposure to retinol and its metabolite): < 1

SMILES: CCOc1cc(CCC(C)=O)ccc1O [Ethylzingerone]
- Renal Clearance [5]: 2.012 L/h
- Exposure risk (DART risk classification) [6]: Low Risk
- DART Hazard Call [2]: Non Toxic
- Aqueous Solubility ([8]; pH 6.25): 7.59 mg/mL

SMILES: CC(C)(C)c1ccc(CCOc2ncnc3ccccc23)cc1 [Fenazaquin]
- Renal Clearance [5]: 0.577 L/h
- Exposure risk (DART risk classification) ([6]; Dietary, 3 mg/daily, oral, ref Supplementary Data Sheet 1): Low Risk
- DART Hazard Call [2, 14]: Non Toxic
- Aqueous Solubility ([8]; Solubility pH 7.01, median, ref [7],[8]): 0.00019 mg/mL
- ADI [9]: ADI set by JMPR (0.05 mg/kg/day)
- NOAEL on which the ADI is based [10]: No evidence of developmental or reproductive toxicity. ADI is based on the NOAEL from this study of 5 mg/kg/day but this was based on parental/systemic toxicity and not reproductive effects.
- BER ([7]; low-risk exposure scenario of the compound): < 1

SMILES: O=C1CCC(N2C(=O)c3ccccc3C2=O)C(=O)N1 (stereo not shown) [Thalidomide]
- 95% percentile (Conc-dose-ratio) ([3]; human, in vivo, po): 0.06
- Mean Conc-dose -ratio ([3]; human, in vivo, po): 0.036 uM/(mg/day]
- TKVF ([3]; human, in vivo, po): 1.73
- Exposure risk (DART risk classification) ([6]; Pharmaceutical, 50 mg/daily, oral, ref Supplementary Data Sheet 1): High Risk
- DART Hazard Call [2, 14]: Toxic
- mortality at or shortly after birth (humans; infants): Thalidomide is a powerful human teratogen, inducing a high frequency of severe and life-threatening birth defects, even after a single dose. Mortality at or shortly after birth has been reported in about 40% of infants.

Source: article PMC12256496, “An advancement in developmental and reproductive toxicity (DART) risk assessment: evaluation of a bioactivity and exposure-based NAM toolbox” (Frontiers in Toxicology, 2025)
